These are literature values, as cited in PMC10005815 (Journal of Medicinal Chemistry, 2023).

The data set has as its system SARS-CoV-2.

Like-named read-outs stand apart in the source and are kept apart here.

As for `N#C[C@]1(c2ccc3c(N)ncnn23)O[C@@H](CO)[C@H](O)[C@@H]1O` [GS-441524], the “Increase of EC50 (resistance selection)” value was 2.7–10.4 fold. In the case of `Cn1cnc(Cn2c(=O)[nH]/c(=N\c3cc4cn(C)nc4cc3Cl)n(Cc3cc(F)c(F)cc3F)c2=O)n1` [S-217622], the EC50 (usually the concentration at which the effect is half-maximal) (read-out: SARS-CoV-2 VOCs EC50) is 290 to 500 nM.

Take `COc1ccc(C(=O)Nc2cccc(C(F)(F)F)c2)cc1Nc1nc(-c2cccnc2)c2[nH]ccc2n1` [XMU-MP-7]: the EC50 (read-out: EC50 against γ, δ, and o variants) was less than 6.9 nM.
